Source: US8263632B2, “Aminopyridine derivatives having Aurora A selective inhibitory action” (Vertex Pharmaceuticals Incoporated, priority 2009, dated 2012)
pIC50: −log10 of the molar value. Like-named read-outs stand apart in the source and are kept apart here.

What was measured:
Aurora A = target: T1, Aurora A (Homo sapiens, UniProt O14965); assay: Aurora A inhibitory action (33P-ATP kinase assay, Kemptide substrate); format: biochemical
T1 construct: histidine tag (N); made in house; host or cells: Escherichia coli BL21-CodonPlus(DE3)-RIL
T1 sequence (O14965 1-403): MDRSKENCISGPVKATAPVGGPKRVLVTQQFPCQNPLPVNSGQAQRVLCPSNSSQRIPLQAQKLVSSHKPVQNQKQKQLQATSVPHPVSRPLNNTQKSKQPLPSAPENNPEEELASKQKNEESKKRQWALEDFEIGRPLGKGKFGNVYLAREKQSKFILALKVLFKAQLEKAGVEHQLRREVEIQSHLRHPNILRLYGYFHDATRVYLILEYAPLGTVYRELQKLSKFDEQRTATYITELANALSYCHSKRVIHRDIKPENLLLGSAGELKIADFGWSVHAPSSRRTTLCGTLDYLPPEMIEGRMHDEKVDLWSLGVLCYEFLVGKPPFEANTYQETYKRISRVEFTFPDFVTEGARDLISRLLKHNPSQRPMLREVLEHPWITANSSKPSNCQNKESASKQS
Description: (§1) The Escherichia coli cells were recovered and solubilized, and then the histidine-tagged Aurora A protein was adsorbed onto a nickel chelate column and eluted from the column with imidazole. The active fraction was desalted with a desalting column to give a pure enzyme.
Then, 10 μL of 350 mM phosphate buffer was added to the reaction system to stop the reaction. The substrate peptide was adsorbed on a P81 paper filter 96-well plate and then washed with 130 mM phosphate buffer for several times. The radiation activity of the peptide was measured with a liquid scintillation counter. The [γ-^33P] labeled ATP was purchased from Amersham Biosciences Co., Ltd.

Aurora B = target: T2, Aurora B (Homo sapiens, UniProt Q96GD4); assay: Aurora B inhibitory action (33P-ATP kinase assay, Kemptide substrate); format: biochemical; settings: 100 μM unlabeled ATP, 100 μM substrate peptide, 30° C. for 20 minutes
T2 construct: histidine tag (N); made in house; host or cells: Escherichia coli BL21-CodonPlus(DE3)-RIL
From the text: Aurora B Inhibitory Action
(1) Purification of Aurora B
as §1, with “cDNA of Aurora B having histidine tag fused at the amino terminal was integrated into an expression vector, which was then highly expressed in Escherichia coli BL21-CodonPlus(DE3)-RIL cells. The Escherichia” for “The Escherichia”
(2) Measurement of activity of Aurora B
For measurement of the activity of Aurora B, the substrate used was Kemptide (Leu-Arg-Arg-Ala-Ser-Leu-Gly) (SEQ. ID. NO.: 1), a synthetic peptide purchased from Sigma-Aldrich, Inc. [Certificate of analysis (Upstate, Inc.)].
Reaction was conducted by a partial modification of the method of activity measurement for Aurora A. The amount of the reaction liquid was 21.1 μL, and the composition of the reaction buffer (R2 buffer) was 50 mM Tris-hydrochloride buffer (pH 7.4)/15 mM magnesium acetate/0.2 mM ethylenediamine-N,N,N′,N′-tetraacetate (EDTA). To this, purified Aurora B, 100 μM of a substrate peptide, 100 μM of unlabeled adenosine triphosphate (ATP) and 1 μCi of [γ-^33P] labeled ATP (2,500 Ci/mmole or more) were added, and the mixture was reacted at 30° C. for 20 minutes. Then, 10 μL of 350 mM phosphate buffer was added to the reaction system to stop the reaction. The substrate peptide was adsorbed on a P81 paper filter 96-well plate and then washed with 130 mM phosphate buffer for several times. The radiation activity of the peptide was measured with a liquid scintillation counter. The [γ-^33P] labeled ATP was purchased from Amersham Biosciences Co., Ltd.

[1] = 20 μM unlabeled ATP, 100 μM substrate peptide, 30° C. for 20 minutes, read-out: Inhibitory activity for Aurora A (IC50)

T2 sequence (Q96GD4 whole entry): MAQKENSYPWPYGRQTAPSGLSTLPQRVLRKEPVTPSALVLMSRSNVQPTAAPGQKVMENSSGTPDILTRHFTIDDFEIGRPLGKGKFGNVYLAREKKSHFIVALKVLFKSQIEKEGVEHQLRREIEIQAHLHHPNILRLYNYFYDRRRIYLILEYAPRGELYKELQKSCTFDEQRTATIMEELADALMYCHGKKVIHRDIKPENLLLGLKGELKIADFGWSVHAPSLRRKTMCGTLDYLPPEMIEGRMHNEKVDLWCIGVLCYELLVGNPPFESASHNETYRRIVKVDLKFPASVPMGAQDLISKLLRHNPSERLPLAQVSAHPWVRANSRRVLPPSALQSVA

SMILES	pIC50 (Aurora A; [1])	pIC50 (Aurora B)	pIC50 (Aurora A)
Cc1cc(Nc2cc[nH]n2)nc(N2C[C@@H]3[C@@H](C2)OCCN3C(=O)OC(C)(C)C(F)(F)F)n1 [Example 3, 1,1,1-trifluoro-2-methylpropan-2-yl (4aR,7aR)-6-[4-methyl-6-(1H-pyrazol-3-ylamino)pyrimidin-2-yl]hexahydropyrrolo[3,4-b][1,4]oxazine-4(4aH)-carboxylate]	8.27	6.06	
Cc1cc(Nc2cc[nH]n2)nc(N2C[C@@H]3[C@@H](C2)OCCN3C(=O)O[C@@H](C)C(F)(F)F)n1 [Example 2, (2S)-1,1,1-trifluoropropan-2-yl (4aR,7aR)-6-[4-methyl-6-(1H-pyrazol-3-ylamino)pyrimidin-2-yl]hexahydropyrrolo[3,4-b][1,4]oxazine-4(4aH)-carboxylate]	8.89	7.07	
CO[C@@]12CCN(C(=O)O[C@@H](C)C(F)(F)F)[C@@H]1CN(c1nc(C)cc(Nc3cc[nH]n3)n1)C2 [Example 1, (2S)-1,1,1-trifluoropropan-2-yl (3aR,6aR)-3a-metboxy-5-[4-methyl-6-(1H-pyrazol-3-ylamino)pyrimidin-2-yl]hexahydropyrrolo[3,4-b]pyrrole-1(2H)-carboxylate]		6.14	8.64
